Test results: patent US20090131309A1, “ICA512 COUPLES INSULIN SECRETION AND GENE EXPRESSION IN BETA-CELLS” (Technische Universität Dresden Medizinizche Fakultät Carl …, priority 2004, published 2009)

Assays:
[1] = tested on: INS-1 cells; assay: Nuclear levels of ICA512-CCF-GFP in INS-1 cells (nuclear extracts, confocal imaging); assay type: cell-based, rat; details: ICA512-GFP INS-1 cells; 60 μM calpeptin
Method: Cell extracts and western blotting. Wild type and transfected INS-1 cells and rat pancreatic islets (350-450) were pre-incubated for 60 minutes in resting buffer containing 0 mM glucose and 5 mM KCl and then incubated for various times in fresh resting or stimulating buffer including 25 mM glucose and 55 mM KCl, as previously described (7). The protease inhibitors calpeptin, MG-132, L-685,458 (Calbiochem, La Jolla, Calif.) were added in the last 15 minutes of the pre-incubation, and then for the entire following period before cells were harvested. Next, the cells were washed with ice cold PBS, and extracted in lysis buffer (10 mM Tris-HCl at pH 8.0, 140 mM NaCl, 1% Triton X-100, 1 mM EDTA, 1 mM PMSF, and 1% protease inhibitor cocktail (Sigma, St. Louis, Mo.) at 4° C. Cytosolic and nuclear extracts were prepared using the NE-PER Nuclear and Cytoplasmic Extraction Reagents (Pierce, Rockford, Ill.) in accordance with the manufacturer's instructions. Protein concentration was measured using the Bio-Rad Protein Assay Reagent (Bio-Rad, Hercules, Calif.). Equivalent amount of protein was separated by 8-10% SDS-PAGE, except for nuclear extracts, in which case half of the protein were loaded compared to the corresponding cytosolic extracts. […] Quantitation of protein signals was performed with the Image Gauge v3.45 software (Fuji). […]

[2] = tested on: ICA512-TMF; assay: Stimulus-induced decrease of ICA512-TMF in rat pancreatic islets (western blot); assay type: cell-based; details: purified rat pancreatic islets; with or without 60 μM calpeptin
Method: Islet isolation and cell culture. Pancreatic islets were isolated from female Wistar rats by collagenase digestion, purified by density gradient centrifugation, and cultured (400/60 mm culture dish) as described previously (26). INS-1 cells were grown as described (27). Cell extracts and western blotting. Wild type and transfected INS-1 cells and rat pancreatic islets (350-450) were pre-incubated for 60 minutes in resting buffer containing 0 mM glucose and 5 mM KCl and then incubated for various times in fresh resting or stimulating buffer including 25 mM glucose and 55 mM KCl, as previously described (7). […] Next, the cells were washed with ice cold PBS, and extracted in lysis buffer (10 mM Tris-HCl at pH 8.0, 140 mM NaCl, 1% Triton X-100, 1 mM EDTA, 1 mM PMSF, and 1% protease inhibitor cocktail (Sigma, St. Louis, Mo.) at 4° C. Cytosolic and nuclear extracts were prepared using the NE-PER Nuclear and Cytoplasmic Extraction Reagents (Pierce, Rockford, Ill.) in accordance with the manufacturer's instructions. Protein concentration was measured using the Bio-Rad Protein Assay Reagent (Bio-Rad, Hercules, Calif.). Equivalent amount of protein was separated by 8-10% SDS-PAGE, except for nuclear extracts, in which case half of the protein were loaded compared to the corresponding cytosolic extracts. […] Quantitation of protein signals was performed with the Image Gauge v3.45 software (Fuji).

## CCCC[C@@H](C=O)NC(=O)[C@H](CC(C)C)NC(=O)OCc1ccccc1 [calpeptin]
[1]
  enrichment of 55 kD ICA512-CCF-GFP in nuclear fractions of stimulated cells: in a calpeptin-sensitive manner
[2]
  decrease of ICA512-TMF upon stimulation: calpeptin-sensitive decrease of ICA512-TMF
